Laboratory results from ChEMBL document CHEMBL5726907, “FXR (NR1H4) modulating compounds” (2018).

Molecular target: T1, Bile acid receptor (Homo sapiens, UniProt Q96RI1)
T1 sequence (Q96RI1 whole entry): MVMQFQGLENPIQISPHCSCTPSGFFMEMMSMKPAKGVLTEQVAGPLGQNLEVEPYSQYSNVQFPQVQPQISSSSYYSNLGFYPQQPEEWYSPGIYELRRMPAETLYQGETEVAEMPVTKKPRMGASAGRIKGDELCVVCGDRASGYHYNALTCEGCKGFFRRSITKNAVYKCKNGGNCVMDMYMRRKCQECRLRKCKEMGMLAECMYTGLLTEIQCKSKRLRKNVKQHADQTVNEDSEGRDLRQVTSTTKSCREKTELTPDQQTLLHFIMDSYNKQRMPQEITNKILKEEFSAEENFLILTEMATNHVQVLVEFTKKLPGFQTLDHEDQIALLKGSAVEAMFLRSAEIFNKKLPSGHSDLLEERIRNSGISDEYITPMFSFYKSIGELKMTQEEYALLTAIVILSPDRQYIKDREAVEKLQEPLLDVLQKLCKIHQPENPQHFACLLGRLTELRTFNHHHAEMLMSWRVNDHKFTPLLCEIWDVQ
Assay: FRET Activity Assay: The human FXRalpha LBD was expressed in E. coli strain BL21(DE3) as an N-terminally GST tagged fusion protein. The DNA encoding the FXR ligand binding domain was cloned into vector pDEST15 (Invitrogen). Expression was under control of an IPTG inducible T7 promoter. The amino acid boundaries of the ligand binding domain were amino acids 187-472 of Database entry NM_005123 (RefSeq). Expression and purification of the FXR-LBD: An overnight preculture of a transformed E. coli strain was diluted 1:20 in LB-Ampicillin medium and grown at 30° C. to an optical density of =0.4-0.6. Gene expression was then induced by addition of 0.5 mM IPTG. Cells were incubated an additional 6 h at 30° C., 180 rpm. Cells were collected by centrifugation (7000×g, 7 min, rt). Per liter of original cell culture, cells were resuspended in 10 mL lysis buffer (50 mM Glucose, 50 mM Tris pH 7.9, 1 mM EDTA and 4 mg/mL lysozyme) and left on ice for 30 min. Cells were then subjected to sonication and cell debris removed via centrifugation (22000×g, 30 min, 4° C.). Per 10 mL of supernatant 0.5 mL prewashed Glutathione 4B sepharose slurry (Qiagen) was added and the suspension kept slowly rotating for 1 h at 4° C. Glutathione 4B sepharose beads were pelleted by centrifugation (2000× g, 15 sec, 4° C.) and washed twice in wash buffer (25 mM Tris, 50 mM KCl, 4 mM MgCl2 and IM NaCl). […]

## O=C(O)c1cc(F)c2nc(C3(O)C4COCC3CC(OCc3c(-c5c(Cl)cccc5Cl)noc3C3CC3)C4)sc2c1 (configuration not stated)
  IC50: 19 nM

## O=C(O)c1ccc2nc(C3(O)C4COCC3CC(OCc3c(-c5c(Cl)cccc5Cl)noc3C3CC3)C4)sc2c1 (configuration not stated)
  IC50: 30 nM
